Like-named read-outs stand apart in the source and are kept apart here.
What was measured:
hMAO-B [1] = target: T1, hMAO-B (Homo sapiens, UniProt P27338); conditions: cited from earlier work
T1 sequence (P27338 1-520): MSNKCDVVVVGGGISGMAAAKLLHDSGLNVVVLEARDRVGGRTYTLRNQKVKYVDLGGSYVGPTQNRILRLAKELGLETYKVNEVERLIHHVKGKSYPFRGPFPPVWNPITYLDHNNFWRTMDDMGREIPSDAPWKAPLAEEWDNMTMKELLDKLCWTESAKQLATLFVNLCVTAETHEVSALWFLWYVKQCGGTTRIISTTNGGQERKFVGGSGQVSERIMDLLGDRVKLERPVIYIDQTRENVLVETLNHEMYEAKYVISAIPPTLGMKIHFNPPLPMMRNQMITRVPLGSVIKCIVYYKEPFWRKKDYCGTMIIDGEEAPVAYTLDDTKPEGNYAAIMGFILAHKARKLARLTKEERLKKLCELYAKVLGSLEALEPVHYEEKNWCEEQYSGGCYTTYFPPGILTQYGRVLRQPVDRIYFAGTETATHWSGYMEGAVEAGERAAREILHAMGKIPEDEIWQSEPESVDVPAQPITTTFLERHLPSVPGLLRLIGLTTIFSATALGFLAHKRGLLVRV

hMAO-A = target: T2, hMAO-A (Homo sapiens, UniProt P21397); experiment: hMAO inhibition assay (Amplex Red fluorescence), hMAO-A, p-tyramine substrate; type: biochemical; conditions: recombinant hMAO-A
T2 sequence (P21397 1-527): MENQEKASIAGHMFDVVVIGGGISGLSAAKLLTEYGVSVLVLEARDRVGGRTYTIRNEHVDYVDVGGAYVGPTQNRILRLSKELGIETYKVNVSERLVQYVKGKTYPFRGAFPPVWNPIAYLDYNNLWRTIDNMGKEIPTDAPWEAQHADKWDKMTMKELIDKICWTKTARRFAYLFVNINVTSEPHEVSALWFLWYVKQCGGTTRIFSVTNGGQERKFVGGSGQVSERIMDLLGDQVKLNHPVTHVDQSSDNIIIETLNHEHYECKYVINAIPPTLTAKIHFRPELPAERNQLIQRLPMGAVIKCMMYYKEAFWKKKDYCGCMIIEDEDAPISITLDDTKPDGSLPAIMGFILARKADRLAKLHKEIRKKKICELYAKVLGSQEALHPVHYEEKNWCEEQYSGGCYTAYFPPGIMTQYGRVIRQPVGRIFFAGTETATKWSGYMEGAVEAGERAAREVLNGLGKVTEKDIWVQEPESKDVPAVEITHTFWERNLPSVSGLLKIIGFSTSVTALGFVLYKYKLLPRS
Experimental: The hMAO inhibition assay was performed as previously described. Adequate amounts of recombinant hMAO-A/B were acquired and adjusted to 12.5 µg/mL or 75 µg/mL for hMAO-A or hMAO-B, respectively, with sodium phosphate buffer (50 mM, pH 7.4). The test compounds were dissolved in DMSO as stock solutions (10 mM) and diluted with sodium phosphate buffer (50 mM, pH 7.4) to the corresponding concentrations. Then the test compounds (20 µL) and hMAO (80 µL) were incubated for 15 min at 37 °C in a flat, black-bottomed 96-well microtest plate in the dark. The reaction was initiated by adding Amplex Red reagent (200 µM, final concentration), horseradish peroxidase (2 U/mL, final concentration), and 2 mM p-tyramine for hMAO-A or 2 mM benzylamine (final concetration) for hMAO-B and incubated at 37 °C for 20 min. Activity was quantified in a multi detection microplate fluorescence reader (SpectraMax M5, Molecular Devices, USA) based on the fluorescence generated (excitation, 545 nm; emission, 590 nm). The specific fluorescence emission was calculated after subtraction of the background activity. The background activity was determined from wells containing all components except the hMAO isoforms, which were replaced by a sodium phosphate buffer solution. The percentage inhibition was calculated by the following expression: (1 – IFi/IFc) × 100, in which IFi and IFc are the fluorescence intensities obtained for hMAO in the presence and absence of inhibitors after subtracting the respective background. […]

hMAO-B [2] = target: T1, hMAO-B; experiment: hMAO inhibition assay (Amplex Red fluorescence), hMAO-B, benzylamine substrate; type: biochemical; conditions: for Selectivity Index (SI): SI = IC50 (hMAO-A)/IC50 (hMAO-B); for fold higher inhibitory potency than 4: from IC50, versus compound 4; for inhibition at 1 µM: tested concentration 1 µM
Experimental: The hMAO inhibition assay was performed as previously described. […] The test compounds were dissolved in DMSO as stock solutions (10 mM) and diluted with sodium phosphate buffer (50 mM, pH 7.4) to the corresponding concentrations. […] The specific fluorescence emission was calculated after subtraction of the background activity. The background activity was determined from wells containing all components except the hMAO isoforms, which were replaced by a sodium phosphate buffer solution. The percentage inhibition was calculated by the following expression: (1 – IFi/IFc) × 100, in which IFi and IFc are the fluorescence intensities obtained for hMAO in the presence and absence of inhibitors after subtracting the respective background.

hMAO-B [3] = target: T1, hMAO-B; experiment: Enzyme kinetic study (Lineweaver–Burk plots); type: biochemical; conditions: benzylamine 1, 2, 4 and 8 mM
Experimental: To evaluate the mode of MAO-B inhibition, the representative compound was evaluated in substrate-dependent kinetic experiments performed as previously described. Sets of Lineweaver–Burk plots were generated. The reciprocal MAO-B activity was plotted against the reciprocal substrate concentration. […] The enzymatic reactions and measurements were performed using human MAO-B assay conditions as described above for the determination of IC50 values.

hMAO-B [4] = target: T1, hMAO-B; experiment: Reversibility study: time-dependent inhibition of hMAO-B; type: biochemical; conditions: for IC80: compounds used at the concentration of their IC80; for time after which the residual activity of hMAO-B began to increase: inhibitor at IC80; for reversibility of hMAO-B inhibition: inhibitor at IC80, activity followed for 120 min
Experimental: Control experiments without inhibitors were run simultaneously. The enzymatic activity was determined as described above. The percentage of enzyme activity was plotted against the incubation time to determine time-dependent enzyme inhibition.

BV2 microglia cells = experiment: MTT assay, cytotoxicity; type: cell-based; conditions: 5 and 25 µM for 24 h
Experimental: The 3–(4, 5-dimethylthiazol-2-yl)-2,5-diphenyltetrazolium (MTT) assay was performed as previously described. BV2 Cells were plated at 5000 cells per well and allowed to grow at 37 °C overnight. Then the cells were treated with various concentrations of the tested compounds for 24 h at 37 °C in a humidified atmosphere with 5% CO2, 0.5% DMSO acted as the vehicle control. The cell culture medium was then removed, followed by the addition of fresh cell culture medium containing 5.0 g/L MTT (20 µL/per well) and incubation at 37 °C in a humidified, 5% CO2 atmosphere for 4 h. After this incubation period, the cell culture medium was removed and the formed formazan crystals dissolved in 100% DMSO. The absorbance was measured at 570 nm in a multi-well plate reader. The results are expressed as % relative cell viability compared to DMSO vehicle control.

[5] = recombinant hMAO-B, read-out: hMAO-B IC50

SMILES	IC50 (hMAO-A) [µM]	Selectivity Index (SI) (hMAO-B [2])	IC50 (hMAO-B [2]; [5]) [µM]	inhibition at 1 µM (hMAO-B [2]) [%]	IC80 (hMAO-B [4]) [µM]	time after which the residual activity of hMAO-B began to increase (hMAO-B [4]) [min]	reversibility of hMAO-B inhibition (hMAO-B [4])	melting point [°C]	also measured
Cc1ccc(C(=O)/C=C/c2ccc(F)c(Br)c2)s1 [Compound 4h]	–	–	–	–	–	–	–	–	inhibition mode of hMAO-B (hMAO-B [1]; ref [13]): reversible inhibition
COc1ccc(C(=O)/C=C/c2ccc(Cl)cc2)c(O)c1 [Compound 5i]	–	–	–	–	–	–	–	–	inhibition mode of hMAO-B (hMAO-B [1]; ref [12]): irreversible inhibition
Brc1cccc(COc2ccc3c(c2)OCCO3)c1 [Compound 7c]	–	–	–	–	–	–	–	–	inhibition mode of hMAO-B (hMAO-B [1]; ref [17]): reversible inhibition
O=C(/C=C/c1ccc2c(c1)OCCO2)c1cccc(Br)c1 [Compound 16, (E)-1-(3-bromophenyl)-3-(2,3-dihydrobenzo[b][1,4]dioxin-6-yl)prop-2-en-1-one]	> 40	>727	0.055 ± 0.002	93.3	0.28	20	reversible	119.3 to 120.4	fold higher inhibitory potency than 4 (hMAO-B [2]): 1.7–4 fold; mode of hMAO-B inhibition (hMAO-B [3]): competitive; Cell viability of BV2 cells (BV2 microglia cells): no considerable decrease in cellular viability
O=C(/C=C/c1ccc2c(c1)OCCO2)c1cccc(Cl)c1 [Compound 17, (E)-1-(3-chlorophenyl)-3-(2,3-dihydrobenzo[b][1,4]dioxin-6-yl)prop-2-en-1-one]	> 40	>702	0.057 ± 0.004	93.4	0.28	20	reversible	125.5 to 127	fold higher inhibitory potency than 4 (hMAO-B [2]): 1.7–4 fold; mode of hMAO-B inhibition (hMAO-B [3]): competitive; Cell viability of BV2 cells (BV2 microglia cells): no considerable decrease in cellular viability
O=C(/C=C/c1ccc2c(c1)OCCO2)c1ccc(F)c(Br)c1 [Compound 22, (E)-1-(3-bromo-4-fluorophenyl)-3-(2,3-dihydrobenzo[b][1,4]dioxin-6-yl)prop-2-en-1-one]	> 40	–	–	95.6	0.19	20	reversible	–	IC50 (hMAO-B [2]): 0.026 ± 0.001 µM; mode of hMAO-B inhibition (hMAO-B [3]): competitive; Cell viability of BV2 cells (BV2 microglia cells): no considerable decrease in cellular viability
O=C(/C=C/c1ccc2c(c1)OCCO2)c1cc(Cl)ccc1O [Compound 25, (E)-1-(5-chloro-2-hydroxyphenyl)-3-(2,3-dihydrobenzo[b][1,4]dioxin-6-yl)prop-2-en-1-one]	> 40	>125	0.32 ± 0.05	78.4	–	–	–	136.2 to 137.3	–
O=C(/C=C/c1ccc2c(c1)OCCO2)c1ccc(Cl)cc1O [Compound 26, (E)-1-(4-chloro-2-hydroxyphenyl)-3-(2,3-dihydrobenzo[b][1,4]dioxin-6-yl)prop-2-en-1-one]	> 40	–	–	62.3	–	–	–	155.7 to 156.1	–
O=C(/C=C/c1ccc2c(c1)OCO2)c1cccc(Br)c1 [Compound 27, (E)-3-(benzo[d][1,3]dioxol-5-yl)-1–(3-bromophenyl)prop-2-en-1-one]	> 40	>143	0.28 ± 0.002	80.4	–	–	–	111.8 to 112.6	–
C#CCN[C@@H]1CCc2ccccc21 [rasagiline, reference compound]	–	–	–	–	0.2	–	–	–	–
C[C@H](NCc1ccc(OCc2cccc(F)c2)cc1)C(N)=O [safinamide, reference compound]	–	–	–	–	0.06	15	reversible	–	–

Reference: article PMC7470127, “Design, synthesis, and evaluation of 1, 4-benzodioxan-substituted chalcones as selective and reversible inhibitors of human monoamine oxidase B” (Journal of Enzyme Inhibition and Medicinal Chemistry, 2020)
